{"source": "the supplement of paper PMC10307832", "test_in_all_cases": "relative viability (nuclei count vs DMSO), 5 days (fraction); higher = more cells survive", "key": {"[1]": {"compound": "C[C@]12O[C@H](C[C@]1(O)CO)n1c3ccccc3c3c4c(c5c6ccccc6n2c5c31)CNC4=O [Lestaurtinib] + C[C@]1(O)C[C@@H](c2nc(-c3ccc4ccc(-c5ccccc5)nc4c3)c3c(N)nccn32)C1 [Linsitinib] (partner 1 µM)", "how_it_was_run": "(§1)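 A single step with final 0.05% Triton X-100, 1% formaldehyde and 1 ug/ml Hoechst fixed the cells and stained nuclei 5 days after treatment. Lung cancer cell lines in 1536-well plates had been treated by pin tool the day after seeding with one drug alone or a fixed anchor-drug dose plus five library-drug doses (not always all listed) in √10 steps, and nuclei were counted on 4× images. Relative viability is the ratio of nuclei in treated wells to nuclei in vehicle wells, taken as the median of duplicate plates.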"}, "[2]": {"compound": "C1/C(=C\\C2=CC=CS2)/C(=O)/C(=C/C3=CC=CS3)/C1 + CC1(C)CCC(c2ccc(Cl)cc2)=C(CN2CCN(c3ccc(C(=O)NS(=O)(=O)c4ccc(N[C@H](CCN5CCOCC5)CSc5ccccc5)c(S(=O)(=O)C(F)(F)F)c4)cc3)CC2)C1 [Navitoclax] (partner 0.5 µM)", "how_it_was_run": "as §1"}, "TPCA-1 + OSI-027": {"compound": "C1=CC(=CC=C1C2=CC(=C(S2)NC(=O)N)C(=O)N)F [TPCA-1] + COc1cccc2cc(-c3nc([C@H]4CC[C@H](C(=O)O)CC4)n4ncnc(N)c34)[nH]c12 [OSI-027] (partner 0.5 µM)", "how_it_was_run": "as §1"}, "[3]": {"compound": "C[C@]12O[C@H](C[C@]1(O)CO)n1c3ccccc3c3c4c(c5c6ccccc6n2c5c31)CNC4=O [Lestaurtinib] + CC(=O)Nc1cccc(-n2c(=O)n(C3CC3)c(=O)c3c(Nc4ccc(I)cc4F)n(C)c(=O)c(C)c32)c1 [Trametinib] (partner 0.02 µM)", "how_it_was_run": "as §1"}}}
{"cell line": "NCI-H1437", "values": [{"measurement": "relative viability", "setting": "[1]; first compound 0.005 µM", "result": 1.02}, {"measurement": "relative viability", "setting": "[1]; first compound 0.01581 µM", "result": 1.24}, {"measurement": "relative viability", "setting": "[1]; first compound 0.05 µM", "result": 0.739}, {"measurement": "relative viability", "setting": "[1]; first compound 0.1581 µM", "result": 0.775}, {"measurement": "relative viability", "setting": "[1]; first compound 0.5 µM", "result": 0.302}, {"measurement": "relative viability", "setting": "[2]; first compound 0.2 µM", "result": 1.15}, {"measurement": "relative viability", "setting": "[2]; first compound 0.6325 µM", "result": 1.09}, {"measurement": "relative viability", "setting": "[2]; first compound 2 µM", "result": 1.07}, {"measurement": "relative viability", "setting": "[2]; first compound 6.325 µM", "result": 1.03}, {"measurement": "relative viability", "setting": "[2]; first compound 20 µM", "result": 0.992}, {"measurement": "relative viability", "setting": "TPCA-1 + OSI-027; first compound 0.04 µM", "result": 0.888}, {"measurement": "relative viability", "setting": "TPCA-1 + OSI-027; first compound 0.1265 µM", "result": 0.89}, {"measurement": "relative viability", "setting": "TPCA-1 + OSI-027; first compound 0.4 µM", "result": 0.908}, {"measurement": "relative viability", "setting": "TPCA-1 + OSI-027; first compound 1.265 µM", "result": 0.921}, {"measurement": "relative viability", "setting": "TPCA-1 + OSI-027; first compound 4 µM", "result": 0.652}, {"measurement": "relative viability", "setting": "[3]; first compound 0.005 µM", "result": 0.569}, {"measurement": "relative viability", "setting": "[3]; first compound 0.01581 µM", "result": 0.684}, {"measurement": "relative viability", "setting": "[3]; first compound 0.05 µM", "result": 0.56}, {"measurement": "relative viability", "setting": "[3]; first compound 0.1581 µM", "result": 0.691}, {"measurement": "relative viability", "setting": "[3]; first compound 0.5 µM", "result": 0.603}]}
{"cell line": "NCI-H838", "values": [{"measurement": "relative viability", "setting": "[1]; first compound 0.005 µM", "result": 1.04}, {"measurement": "relative viability", "setting": "[1]; first compound 0.01581 µM", "result": 1.01}, {"measurement": "relative viability", "setting": "[1]; first compound 0.05 µM", "result": 0.759}, {"measurement": "relative viability", "setting": "[1]; first compound 0.1581 µM", "result": 0.507}, {"measurement": "relative viability", "setting": "[1]; first compound 0.5 µM", "result": 0.146}, {"measurement": "relative viability", "setting": "[2]; first compound 0.2 µM", "result": 1.23}, {"measurement": "relative viability", "setting": "[2]; first compound 0.6325 µM", "result": 1.17}, {"measurement": "relative viability", "setting": "[2]; first compound 2 µM", "result": 1.14}, {"measurement": "relative viability", "setting": "[2]; first compound 6.325 µM", "result": 0.86}, {"measurement": "relative viability", "setting": "[2]; first compound 20 µM", "result": 1.05}, {"measurement": "relative viability", "setting": "TPCA-1 + OSI-027; first compound 0.04 µM", "result": 0.427}, {"measurement": "relative viability", "setting": "TPCA-1 + OSI-027; first compound 0.1265 µM", "result": 0.353}, {"measurement": "relative viability", "setting": "TPCA-1 + OSI-027; first compound 0.4 µM", "result": 0.391}, {"measurement": "relative viability", "setting": "TPCA-1 + OSI-027; first compound 1.265 µM", "result": 0.389}, {"measurement": "relative viability", "setting": "TPCA-1 + OSI-027; first compound 4 µM", "result": 0.299}, {"measurement": "relative viability", "setting": "[3]; first compound 0.005 µM", "result": 0.559}, {"measurement": "relative viability", "setting": "[3]; first compound 0.01581 µM", "result": 0.497}, {"measurement": "relative viability", "setting": "[3]; first compound 0.05 µM", "result": 0.486}, {"measurement": "relative viability", "setting": "[3]; first compound 0.1581 µM", "result": 0.333}, {"measurement": "relative viability", "setting": "[3]; first compound 0.5 µM", "result": 0.0966}]}
{"cell line": "NCI-H1666", "values": [{"measurement": "relative viability", "setting": "[1]; first compound 0.005 µM", "result": 0.926}, {"measurement": "relative viability", "setting": "[1]; first compound 0.01581 µM", "result": 1.04}, {"measurement": "relative viability", "setting": "[1]; first compound 0.05 µM", "result": 0.847}, {"measurement": "relative viability", "setting": "[1]; first compound 0.1581 µM", "result": 0.475}, {"measurement": "relative viability", "setting": "[1]; first compound 0.5 µM", "result": 0.501}, {"measurement": "relative viability", "setting": "[2]; first compound 0.2 µM", "result": 1.22}, {"measurement": "relative viability", "setting": "[2]; first compound 0.6325 µM", "result": 0.818}, {"measurement": "relative viability", "setting": "[2]; first compound 2 µM", "result": 1.05}, {"measurement": "relative viability", "setting": "[2]; first compound 6.325 µM", "result": 0.622}, {"measurement": "relative viability", "setting": "[2]; first compound 20 µM", "result": 0.983}, {"measurement": "relative viability", "setting": "TPCA-1 + OSI-027; first compound 0.04 µM", "result": 0.856}, {"measurement": "relative viability", "setting": "TPCA-1 + OSI-027; first compound 0.1265 µM", "result": 0.788}, {"measurement": "relative viability", "setting": "TPCA-1 + OSI-027; first compound 0.4 µM", "result": 0.851}, {"measurement": "relative viability", "setting": "TPCA-1 + OSI-027; first compound 1.265 µM", "result": 0.883}, {"measurement": "relative viability", "setting": "TPCA-1 + OSI-027; first compound 4 µM", "result": 0.865}, {"measurement": "relative viability", "setting": "[3]; first compound 0.005 µM", "result": 0.898}, {"measurement": "relative viability", "setting": "[3]; first compound 0.01581 µM", "result": 0.892}, {"measurement": "relative viability", "setting": "[3]; first compound 0.05 µM", "result": 0.882}, {"measurement": "relative viability", "setting": "[3]; first compound 0.1581 µM", "result": 0.88}, {"measurement": "relative viability", "setting": "[3]; first compound 0.5 µM", "result": 0.781}]}
